The values that follow come from PMC11045757, “Group 3 medulloblastoma transcriptional networks collapse under domain specific EP300/CBP inhibition” (Nature Communications, 2024).

The target of test [1] is T1, BRD4-BD1 (BRD4-1) (Homo sapiens, UniProt O60885).
T1 construct: BRD4-BD1 (residues 44-168); 6xHis (cleaved yes); host or cells: E. coli BL21 (DE3) RIL
Put plainly: Isothermal titration calorimetry (ITC). In kind it is binding. Here is the method:
(§1) At OD600 of 0.6, the culture was cooled down to 18 °C and induced with 0.1 mM IPTG. After 18 h growth, the culture was harvested by centrifugation at 6000 × g for 25 min and stored at -80 °C. Harvested cell pellets were re-suspended in 50 mM Na/K phosphate buffer (pH 7.4) containing 100 mM NaCl, 40 mM imidazole, 0.01% w/v lysozyme and 0.01% v/v Triton X-100 at 4 °C for 1 h, subjected to sonication and the lysate was clarified by centrifugation (30,000 × g for 45 min at 4 °C). Proteins were purified by FPLC at 4 °C using columns and chromatography materials from GE Healthcare. […] Proteins were purified to homogeneity by size exclusion chromatography using Superdex 75 equilibrated with elution buffer (50 mM HEPES pH 7.5, 100 mM NaCl, 2 mM DTT). All BRDs eluted as monomeric protein and were of crystallization grade quality (>95% purity as judged by SDS-PAGE). Pool fractions were combined, concentrated to 10–12 mg/ml, and aliquots were flash-frozen in liquid N2 and stored at −80 °C.
All experiments were conducted using an PEAQ-ITC calorimeter (Malvern Scientific). BRDs were buffer exchanged using PD10 columns (GE life sciences) into 50 mM HEPES pH7.5 and 100 mM NaCl (ITC buffer) before the experiment and concentrated to ∼10 mg/mL. Experiments were carried out in ITC buffer while stirring at 750 rpm through reverse titration. The microsyringe (40 μL load volume) was loaded with the protein sample (250–600 μM protein in ITC buffer) and inserted into the calorimetric cell (0.2 mL cell volume) consisting of compound (20–60 μM in ITC buffer). All titrations were conducted using an initial control injection of 0.2 μL followed by 13 identical injections (~3 μL per injection) with a duration of 2 s (per injection) and a spacing of 150 s between injections. The ratio of protein/compound was optimized to ensure complete saturation of the titrant before the final injection to ensure proper baseline determination. Data were corrected for dilution and analyzed using the MicroCal Origin software to determine the enthalpies of binding (ΔH) and binding constants as described. Thermodynamic parameters were calculated using the basic equation of thermodynamics (ΔG = ΔH − TΔS = −RTlnKB) where ΔG, ΔH and ΔS are the changes in free energy, enthalpy and entropy of binding, respectively. A single binding site model was used for all ligand-protein interactions.

Test [2] relates to HDMB03 (HDMBO3) group 3 medulloblastoma cells. Description: CellTiter-Glo dose-response growth assay. In kind it is cell-based. To be noted: Homo sapiens, HD-MB03; HDMBO3 G3MB cell growth; read-out: IC50 (nM) HDMBO3. A digest of the protocol: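 Growth of the G3MB line HDMB03 was assessed across compound concentrations. Cells went into 384-well plates at 500 cells per well in growth medium and were exposed to compound for the indicated time. A CellTiter-Glo luminescence assay, run per manufacturer instructions and read on an Envision 2104 instrument, quantified remaining cell growth.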

The target of test [3] is T1, BRD4-BD1 (BRD4-1). Put plainly: Differential scanning fluorimetry (DSF) thermal shift. It counts as binding. To be noted: DSF; 5 μM protein, 100 μM compound; three independent experiments, average ± SD. A digest of the protocol:
(§2)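 Thermal shift of 5 μM E. coli-expressed bromodomain with 100 μM compound in 50 mM HEPES pH 7.5, 150 mM NaCl, 2 mM DTT, 2% DMSO, 5X SYPRO Orange, quadruplicate. Heated 25→95 °C at 1 °C/min, fluorescence at 610 nm; ΔTm relative to DMSO reference wells.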

Test [4] concerns the target T2, EP300 bromodomain (Homo sapiens, UniProt Q09472).
T2 construct: 6xHis (cleaved yes); host or cells: E. coli BL21 (DE3) RIL
T2 sequence (Q09472 1048-1161): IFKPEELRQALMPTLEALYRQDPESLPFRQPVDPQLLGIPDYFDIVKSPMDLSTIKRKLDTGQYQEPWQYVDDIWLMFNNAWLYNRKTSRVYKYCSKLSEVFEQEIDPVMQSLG
Described as above. It counts as binding. To be noted: DSF; 5 μM protein, 100 μM compound; three independent experiments, average ± SD. The essentials: as §2

The target in test [5] is T3, CBP bromodomain (Homo sapiens, UniProt Q92793).
T3 construct: CBP (residues 1081-1197); 6xHis (cleaved yes); host or cells: E. coli BL21 (DE3) RIL
T3 sequence (Q92793 1081-1197): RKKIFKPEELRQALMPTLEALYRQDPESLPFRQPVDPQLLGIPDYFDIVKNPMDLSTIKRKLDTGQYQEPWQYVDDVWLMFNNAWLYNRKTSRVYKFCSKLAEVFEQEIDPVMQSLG
The test is described as above. In kind it is binding. To be noted: DSF; 5 μM protein, 100 μM compound; three independent experiments, average ± SD.

Test [6] relates to CBP bromodomain. The test is described as above. In kind it is binding. To be noted: ΔTm (CBP)/ΔTm(BRD4).
Test [7] deals with T3, CBP bromodomain. Description: Isothermal titration calorimetry (ITC). It counts as binding. To be noted: single ITC experiment, data fit ± SEM. The protocol: as §1, with “After” for “At OD600 of 0.6, the culture was cooled down to 18 °C and induced with 0.1 mM IPTG. After”, “All BRDs eluted as monomeric protein and were of crystallization grade quality (>95% purity as judged by SDS-PAGE).” left out
A general note: Isothermal titration calorimetry measures the heat released or taken up as one component is titrated into another.

The target in test [8] is T2, EP300 bromodomain. Description: Isothermal titration calorimetry (ITC). In kind it is binding. To be noted: single ITC experiment, data fit ± SEM. The protocol:
as §1, with “After” for “At OD600 of 0.6, the culture was cooled down to 18 °C and induced with 0.1 mM IPTG. After”, “All BRDs eluted as monomeric protein and were of crystallization grade quality (>95% purity as judged by SDS-PAGE).” left out

With `Cc1noc(C)c1-c1ccc2c(c1)nc(C1CCCC(=O)N1)n2C1CCC(NC(=O)OC(C)(C)C)CC1` (stereo not drawn) [Compound 1], at BRD4-BD1 (BRD4-1) [1] (relative to CCS1477), the “reduction of activity against BRD4” value is ~ 10 fold. For the same compound, the Kd (commonly the free concentration of one partner at which half of the binding sites on the other are occupied at equilibrium, for simple one-to-one binding) at BRD4-BD1 (BRD4-1) [1] (single ITC experiment, data fit ± SEM) is 4210 ± 400 nM; at CBP bromodomain [7] it was 1550 ± 600 nM; on EP300 bromodomain [8] it was 2300 ± 386 nM. In test [2], the half-maximal inhibitory concentration (IC50) – broadly, the concentration needed to halve the response being measured – is above 100000 nM. On BRD4-BD1 (BRD4-1) [3], the “∆Tm (°C) BRD4-1” value came out at 2.1 ± 0.06 °C. Also, the “∆Tm (°C) EP300” value at EP300 bromodomain [4] worked out at 7.3 ± 1.3 °C. Besides, at CBP bromodomain [5], the “∆Tm (°C) CBP” value came out at 7.8 ± 0.43 °C. Further, the “Ratio CBP/BRD4 of ∆Tm” value with CBP bromodomain [6] is reported as 3.7.
